Source: patent publication US11771685B2, “Compounds for the treatment of neurological or mitochondrial diseases” (MUSC FOUNDATION FOR RESEARCH DEVELOPMENT, priority 2018, dated 2023)

What was measured:
[1] = system: HT22 cells; assay: HT22 oxytosis (glutamate-induced cell death) neuroprotection assay; format: cell-based, mouse; settings: 10 mM Glu
Experimental: The HT22 murine hippocampal cell system was chosen as an initial phenotypic screen for neuroprotective efficacy (Andreux et al., 2013; Andreux et al., 2014; Ohlow et al., 2017; Schubert and Maher, 2012). HT22 cells exposed to high extracellular Glu ([…]) undergo oxytosis, a non-apoptotic programmed cell death involving glutathione (GSH) depletion followed by ROS accumulation, oxidative damage, and a cytotoxic signaling cascade (Tan et al., 2001). Glu blocks the −xC cystine antiporter, causing (Tan et al., 2001) cells to accumulate severe oxidative stress, mitochondrial depolarization, disrupted mitochondrial morphology, and Ca^2+ influx (Tan et al., 2001; Yang et al., 2011; Cheng et al., 2013—cellular events that may occur in neurological diseases, including epilepsy. Thus, the immortalized HT22 cell line is a well-established model of neuronal oxidative stress (Sagara and Schubert, 1998; Matsumoto et al., 1996; Albrecht et al., 2010; Ha and Park, 2006; van Leyen et al., 2005; Tobaben et al., 2011), and a verified model of neurodegeneration to screen for potential neuroprotective drugs (Albrecht et al., 2010; van Leyen et al., 2008; Lewerenz et al., 2009; Lewerenz et al., 2003).
Consistent with that work, most of the 2-amino compounds achieved protection of HT22 cells against glutamate-induced oxytosis in the nM to μM range. […] Neuroprotection based on relative cell viability compared to +Glu and −Glu control cells was measured.
The HT22 neuronal cell line is a subclone of HT4, derived from the mouse hippocampus (Morimoto and Koshland, 1990). […] The HT22 cells used in this study were kindly provided by Dr. David Schubert (The Salk Institute for Biological Studies, La Jolla, CA, USA). The cells were grown in Dulbecco's Modified Eagle's Medium (DMEM/high glucose) supplemented with 10% fetal bovine serum (Hyclone) and 5 mL of antibiotic-antimycotic (Amphotericin B, Penicillin, and Streptomycin; Invitrogen) at 37° C. in 5% CO2.
HT-22 cells were seeded onto 96-well plates at 2.5×10^3 cells per well in 75 μL of medium and maintained at 37° C. in 5% CO2 overnight prior to the initiation of experimental treatments. For glutamate toxicity testing, cells were subsequently treated with 25 μL of medium containing glutamate (monosodium glutamate, Sigma, 1 M stock concentration in media, to achieve a final concentration of 10 mM) plus compound (stock in DMSO) and maintained at 37° C. in 5% CO2 for 24 hr. CellTiter-Blue® (resazurin cell viability assay reagent) was then added to each well at a final concentration of 0.125 mg/mL. The mixture was allowed to incubate for 2-4 hr until sufficient color change occurred. Cell viability was measured as a function of resorufin fluorescence intensity using a Tecan M200 Pro spectrophotometer, 560 nm/590 nm (excitation/emission). Cell viability was calculated as a percentage compared with untreated controls. EC50s were determined using GraphPad Prism's “log(inhibitor) vs. normalized response-Variable slope” function. Morphology of HT22 cells following treatments was determined by phase-contrast microscopy.
(§1) Statistical analyses were performed with GraphPad Prism 6 software. For the in vitro HT22 oxytosis assay, dose-response data were fit using GraphPad Prism's log(inhibitor) vs normalized response-variable slope parameters to determine EC50 values and 95% confidence intervals. For the zebrafish locomotive anti-seizure activity data, multiple comparisons were made using a one-way analysis of variance (ANOVA) with a Kruskal-Wallis Test, followed by the Dunn's Method to determine significant differences between all pairs or between control and experimental groups using the Dunn Method for Joint Ranking. Differences were considered statistically significant when p<0.05. Data from zebrafish experiments are represented as scatter dot plots of individual measurements, with means±standard deviation indicated by bars.

[2] = system: PTZ-induced seizure activity in zebrafish larvae; assay: Zebrafish PTZ-induced seizure model; format: in vivo; settings: for anti-seizure activity / minimal effective concentration: 7 dpf larvae; for anti-seizure activity: PTZ; for minimal effective concentration: 1 hr pre-treatment, 10 mM PTZ, read-out: Anti-seizure activity: lowest tested dose with significant difference vs PTZ-only group
Experimental: The zebrafish PTZ-induced seizure model was used to determine the most promising compounds' in vivo efficacy. Zebrafish larvae (7 dpf) were treated with the compound for 1 hr prior to inducing seizures with PTZ. As established by previous larval zebrafish anti-seizure studies (Rahn et al., 2014; Hansen et al., 2004; Baraban et al., 2005), total distance traveled by each fish after seizure induction was measured and used as a proxy for seizure activity. Following collection of locomotor data, observation of a startle response and visual inspection for abnormal morphology confirmed that alterations in swim activity were not caused by compound toxicity.
We induced seizures in 7 dpf zebrafish larvae by the addition of […] PTZ as originally developed by Baraban et al., 2005. In a 48-well plate, one 7-dpf zebrafish was added per well. Larvae were dosed with each compound at a sub-lethal dose 1 hr prior to PTZ treatment. Two control rows were included with each experiment—tank water only control and PTZ only. Seizures were induced by adding PTZ to wells to yield a final concentration of 10 mM. After 5 min, the plate was transferred to the Daniovision instrument (Noldus Information Technology) and the chamber light was turned on. After 2 min, MediaRecorder (Noldus) was used to record video for 15 min. A small number of videos were acquired at 25 frames per second, but the majority of data were acquired at 60 frames per second. […] Ethovision XT software (Noldus) was used to track the fish movement from the video images in order to calculate the total distance traveled over 15 min. All experimental comparisons were made between animals from the same clutch.
as §1

[3] = Clinical observations in dosed mice; format: in vivo; settings: for pigmented urine: efficacy studies, 5% DMSO:95% Neobee formulation; for clinical symptoms during the IV study: intravenous 5 mg/kg, CD-1 mice
Experimental: PK studies on 3 and 25 were carried out in CD-1 mice. Three males were dosed via oral gavage needle for oral administration at 20 mg/kg (10 mL/kg) or via intravenous administration at 5 mg/kg (10 mL/kg). Blood samples were taken at time intervals between 5 min and 24 hr from each animal.
PO PK experiments were repeated for 25, with oral dosing at 20 mg/kg and 10 mL/kg of a suspension with 1% Tween 80:1% carboxymethylcellulose in water.
Table 2 provides a summary of efficacy studies in vivo in mice, and in rat brain slices, using the 5% DMSO:95% Neobee formulation.

[4] = Mus musculus, HT-22, 24 h, HT22 cells, 24 hr, 95% CI in parentheses

| SMILES | EC50 [1, 4] | anti-seizure activity [2] | minimal effective concentration ([2]; Danio rerio) | inhibition in vivo at 5 µM ([2]; Danio rerio, 5 μM, read-out: reduction of PTZ-induced locomotor activity) | inhibition in vivo at 10 µM ([2]; Danio rerio, 10 μM, read-out: reduction of PTZ-induced locomotor activity) | inhibition in vivo at 20 µM ([2]; Danio rerio, 20 μM, read-out: reduction of PTZ-induced locomotor activity) | pigmented urine [3] | clinical symptoms during the IV study [3] | EC50 ([1]; Mus musculus, HT-22, HT22 cells) | EC50 ([1]; HT22 cells, 24 hr, 95% CI in parentheses) | inhibition in vivo at 2.5 µM ([2]; Danio rerio, 2.5 μM, read-out: reduction of PTZ-induced locomotor activity) | clinical symptoms after oral dosing ([3]; oral 20 mg/kg, suspension 1% Tween 80:1% carboxymethylcellulose in water) |
| --- | --- | --- | --- | --- | --- | --- | --- | --- | --- | --- | --- | --- |
| CCC#CCNC1=CC(=O)c2ccccc2C1=O [Compound 3, 2-(Pent-2-yn-1-ylamino)naphthalene-1,4-dione] | 1010 nM | decrease seizures in a zebrafish model of epilepsy in a dose-dependent manner | ≤ 5 µM | 62% | 80% | 91% | showed pigmented urine | no abnormal clinical symptoms |  |  |  |  |
| CC(C)CCNC1=CC(=O)c2ccccc2C1=O [Compound 17, 2-(Isopentylamino)naphthalene-1,4-dione] |  |  | 5 µM |  |  |  | Pigmented urine was not seen |  | > 12000 nM |  |  |  |
| CC(C)CCOC1=CC(=O)c2ccccc2C1=O [Compound 25, 2-(Isopentyloxy)naphthalene-1,4-dione] | ~24 nM | decrease seizures in a zebrafish model of epilepsy in a dose-dependent manner | ≤ 5 µM |  |  |  |  | no abnormal clinical symptoms |  | 23.9 nM | 45% | No abnormal clinical symptoms |
